Assays:
[1] = test system: patients with PD; assay: MDS-UPDRS / Hoehn & Yahr clinical rating, phase I trial; type: in vivo, human
Method: A single-center, double-blinded, randomized, placebo-controlled phase I trial of oral NR supplementation in newly diagnosed patients with PD was conducted. […] Due to the early onset, this patient underwent genetic investigation with whole-exome sequencing and SNP-chip based genome-wide copy number variation analysis, which excluded pathogenic mutations in PD-related genes, including PINK1 and PRKN. screening. Patient recruitment, inclusion, and follow-up was carried out by a GCP certified investigator. Sample size of 30 participants was chosen based on previously reported brain metabolic network analyses. Thirty PD patients were randomly assigned (Block size 6, allocation 1:1) to 500 mg NR, provided in the form of nicotinamide riboside chloride ([…]® from Chromadex), or placebo twice per day, 12 hours apart, using the electronic Case Report Form (Viedoc.com). The drug containers were sequentially marked by an independent third party. The […]®) and placebo were provided by ChromaDex, USA. Each NR capsule contained 250 mg of NR. Placebo capsules contained microcrystalline cellulose. The vials and capsules containing NR and placebo were identical in shape, colour, and smell. Study drug compliance was calculated from counting returned number of study capsules and self-reporting. Participants, examining physicians, medical- and research personnel were blinded for the duration of the trial. Sample size was determined by comparing previous literature with respect to the primary objective. At screening for trial entry, candidates underwent physical and neurological examination, brain MRI, and […]. Eligible patients who entered the trial were assessed at baseline (visit 1, V1) and after four weeks of exposure to either NR or placebo (visit 2, V2). At both visits, patients underwent physical and neurological examination, including assessment by the Movement Disorder Society Unified Parkinson's Disease Rating Scale section I-IV (MDS-UPDRS), and biological sampling. MR-PET was performed within one week prior to visit 1, and at visit 2. All participants remained naïve for antiparkinson drugs for the duration of the trial. All clinical assessments were performed by a blinded movement disorders expert. Each patient was examined by the same neurologist at both visits. Methodological details on each procedure are provided below. Safety was monitored through routine clinical blood tests and registration of adverse events. Adverse events (AE) were recorded and scored by the investigative physician. […] The AE relation to the study drug was scored as (1) unrelated, (2) unlikely, (3) possible, (4) probable or (5) definitely. The between visit change ([visit 2]-[visit 1]) in MDS-UPDRS (total of subsections I-III; and individual subsections I, II and III) was compared between the NR and placebo groups using independent Student's t-test. In addition, the between visit change in MDS-UPDRS (total and subsections) within the NR, MRS-responder, and placebo groups was assessed by paired Student's t-test. For the 31P-MRS analyses, the change in measured metabolites between visit 1 and visit 2 was assessed in the placebo- and NR group using paired Student's t-test. In addition, the between-visit change in NAD/ATP-α was compared between the NR and placebo group by independent Student's t-test. For PET analyses, changes in network scores with treatment were evaluated for each group separately using paired Student's t-tests or permutation tests. Relationships between network values, NAD levels and MDS-UPDRS motor ratings or between treatment-related changes in these variables were evaluated using Pearson's product-moment correlations; Spearman rank-order correlation coefficients were computed for non-normal distributions of the variables. These statistical tests were performed using SPSS (SPSS Inc., Chicago, IL); results were considered significant for p≤0.05 (two-tailed). […]

[2] = test system: rats; settings: rat, in vivo; cited from earlier work
[3] = Visit 1 (baseline), MRS Responders N=10
[4] = Visit 1 (baseline), NR group N=15
[5] = Visit 2 (after four weeks), MRS Responders N=10
[6] = Visit 2 (after four weeks), NR group N=15

NC(=O)c1ccc[n+]([C@@H]2O[C@H](CO)[C@@H](O)[C@H]2O)c1 [NR, nicotinamide riboside]
mean decrease in MDS-UPDRS between visits ([1]; MRS-responder subgroup (n=10), paired t-test p=0.071): 1.9±2.78
clinical change as measured by the UPDRS scale ([1]; NR 1000 mg daily, one month): mild clinical improvement
motor symptoms in PD patients who received NR ([1]; NR 1000 mg daily, one month): no worsening of motor symptoms
Hoehn & Yahr Stage, mean [1, 3]: 1.7
MDS-UPDRS I, mean score [1, 3]: 6.2
MDS-UPDRS II, mean score [1, 3]: 6.4
MDS-UPDRS III, mean score [1, 3]: 29.6
Total score MDS-UPDRS (I-III), mean [1, 3]: 42.2
Hoehn & Yahr Stage, mean [1, 4]: 1.8
MDS-UPDRS I, mean score [1, 4]: 6.3
MDS-UPDRS II, mean score [1, 4]: 7.9
MDS-UPDRS III, mean score [1, 4]: 31.1
Total score MDS-UPDRS (I-III), mean [1, 4]: 45.2
Hoehn & Yahr Stage, mean [1, 5]: 1.8
MDS-UPDRS I, mean score [1, 5]: 5.3
MDS-UPDRS II, mean score [1, 5]: 6.4
MDS-UPDRS III, mean score [1, 5]: 28.7
Total score MDS-UPDRS (I-III), mean [1, 5]: 40.4
Hoehn & Yahr Stage, mean [1, 6]: 1.9
MDS-UPDRS I, mean score [1, 6]: 5.4
MDS-UPDRS II, mean score [1, 6]: 8.3
MDS-UPDRS III, mean score [1, 6]: 30.5
Total score MDS-UPDRS (I-III), mean [1, 6]: 44.1
mean decrease in MDS-UPDRS between visits ([1]; nine individuals with >10% increase in cerebral NAD, paired t-test p=0.017): 2.33±2.35
non-lethal oral dose [2]: ≥ 5000 mg/kg
